The results in this text go back to ChEMBL document CHEMBL1126718, “Potent in vitro and in vivo inhibitors of platelet aggregation based upon the Arg-Gly-Asp-Phe sequence of fibrinogen. A proposal on the nature of the binding interaction between the Arg-guanidine of RGDX mimetics and the platelet GP IIb-IIIa receptor” (J Med Chem, 1993).

In general, IC50 refers to the concentration at which inhibition is half-maximal.

The species entered for experiment [1] is Canis familiaris. The experiment is described as follows: In vitro inhibition of ADP-induced platelet aggregation in canine platelet rich plasma (PRP). It is filed as functional. Conditions: Canis lupus familiaris; call rule not given here.
Experiment [2] can be described thus: In vitro inhibition of ADP-induced platelet aggregation in human platelet rich plasma (PRP). It is filed as functional.
The species named for experiment [3] is Canis familiaris. The experiment is described as follows: In vitro inhibition of ADP-induced platelet aggregation in canine platelet rich plasma (PRP); Inactive. Type of experiment: functional, Canis lupus familiaris.
A short description of experiment [4]: In vitro inhibition of ADP-induced platelet aggregation in platelet rich plasma (PRP). Type of experiment: functional.

Peptide text beside a SMILES is read from it.

`N=C(N)c1ccc(CC(=O)CCC(=O)N[C@@H](CC(=O)O)C(=O)N[C@@H](Cc2ccccc2)C(=O)O)cc1` returned an IC50 in the experiment filed under Canis familiaris [1] of 180 nM. This lies in the sub-micromolar range.
In the case of `N=C(N)c1ccc(CCCCC(=O)N[C@@H](CC(=O)O)C(=O)N[C@@H](Cc2ccccc2)C(=O)O)cc1`, the IC50 in experiment [2] turned out to be 42 nM; in the experiment filed under Canis familiaris [1] it was 53 nM.
In the case of `N=C(N)c1ccc(CCCC(=O)N[C@@H](CC(=O)O)C(=O)N[C@@H](Cc2ccccc2)C(=O)O)cc1`, the IC50 result in the experiment listed under Canis familiaris [3] is on record as “Not Active”.
With `N=C(N)c1ccc(/C=C/CCC(=O)N[C@@H](CC(=O)O)C(=O)N[C@@H](Cc2ccccc2)C(=O)O)cc1`, the IC50 in experiment [2] is 90 nM; in the experiment listed under Canis familiaris [1], 82 nM.
The matching figures for `N=C(N)c1ccc(C#CCCC(=O)N[C@@H](CC(=O)O)C(=O)N[C@@H](Cc2ccccc2)C(=O)O)cc1`: 120 nM and 90 nM.
The matching figures for `N=C(N)c1cccc(/C=C/CCCC(=O)N[C@@H](CC(=O)O)C(=O)N[C@@H](Cc2ccccc2)C(=O)O)c1`: 3200 nM and 4300 nM.
Consider `N=C(N)c1cccc(CCCCCC(=O)N[C@@H](CC(=O)O)C(=O)N[C@@H](Cc2ccccc2)C(=O)O)c1`, for which half-maximal inhibition in the experiment listed under Canis familiaris [1] (IC50) required 5800 nM.
For `N=C(N)NCCC[C@H](N)C(=O)NCC(=O)N[C@@H](CC(=O)O)C(=O)N[C@@H](Cc1ccccc1)C(=O)O` (H-RGDF-OH), it took 90000 nM to reach half-maximal inhibition in experiment [4] (IC50).
